Measurements reported in patent US4603217A, “Ester substituted alkyl-2-(2,6-dichloroanilino)phenyl acetates” (priority 1983, dated 1986).
Where two headings read alike, the source gives them in different places.

Key:
ultraviolet erythema = test: inhibition action for ultraviolet erythema; type: in vivo, male Hartley guinea pigs; parameters: 2 hs after the irradiation, Average ± standard error / 3 hs after the irradiation, Average ± standard error / 5 hs after the irradiation, Average ± standard error: scale not given here; 2 hs after the irradiation, Rate for inhibition / 3 hs after the irradiation, Rate for inhibition / 5 hs after the irradiation, Rate for inhibition: unit not given here; settings: for 2 hs after the irradiation, Average ± standard error / 2 hs after the irradiation, Rate for inhibition: 2 hs after irradiation; for 2 hs after the irradiation, Average ± standard error / 2 hs after the irradiation, Rate for inhibition / 3 hs after the irradiation, Average ± standard error / 3 hs after the irradiation, Rate for inhibition / 5 hs after the irradiation, Average ± standard error / 5 hs after the irradiation, Rate for inhibition / duration of the pharmacological effect: guinea pigs; for 3 hs after the irradiation, Average ± standard error / 3 hs after the irradiation, Rate for inhibition: 3 hs after irradiation; for 5 hs after the irradiation, Average ± standard error / 5 hs after the irradiation, Rate for inhibition: 5 hs after irradiation; for duration of the pharmacological effect: ultraviolet erythema, oral
Procedure: With respect to Compounds 1 to 3, 15 and 21 which are especially useful as an anti-inflammatory drug, IM and DF, inhibition action for ultraviolet erythema was investigated according to the method of Adames et al [cf. Nature, London, 181, 773 (1958)] using guinea pigs as follows: Male Hartley guinea pigs weighing 250 to 350 g were shaved at their sides the day before and two hrs before the ultraviolet irradiation. To the guinea pigs were administered orally Compounds 1 to 3, 15 and 21, IM and DF in amounts as described in Table 2, respectively. To the control group was administered orally only Tween-80. At 1 hr after the time of administration, the guinea pigs were irradiated at their shaved sides by ultraviolet beam for 40 seconds.
The reaction of the ultraviolet erythema was evaluated at 2 hrs, 3 hrs and 5 hrs after irradiation according to the method of Winder et al [cf. Arch. Int. Pharmacodyn., 116, 261 (1958)]. […] Compounds 1 and 2 show a duration of the pharmacological effect over 5 hrs, contrary to that IM has a duration of 2 hrs.

in vivo [1] = settings: rat, po
Procedure: Gastrointestinal ulcer formation action, which is a principal side effect of an acid anti-inflammatory drug, was investigated according to the method of Okabe et al [cf. […] The compounds of the present invention, IM, DF and acemethacin were suspended in 5% Tween-80 solution and administered orally 1 ml/100 g body weight to the rats, respectively. At 6 hrs after the administration, the state of glandstomach was observed by means of a dissecting microscope whether the ulcer having a diameter more than 1 mm was generated or not.

[2] = Rate of hydrolysis in rat plasma; type: in vitro ADME; settings: in 1 ml of plasma rat (37° C., incubation for 1 hr)
Procedure: **in 1 ml of plasma rat (37° C., incubation for 1 hr)

in vivo [3] = settings: mouse, po
carrageenan edema = test: inhibition test of carrageenan edema employing a foot-pad edema method; type: in vivo, male Wister rats; settings: for ED50: Rattus norvegicus, read-out: ED50 for inhibition for carrageenan edema; for anti-inflammatory activity compared with IM: relative to IM
From the text: Anti-inflammatory action was investigated according to the method of Winter et al [cf. Pro. Soc. Exp. Biol. Med., 111, 544 (1962)] by the inhibition test of carrageenan edema employing a foot-pad edema method using carrageenan as an irritating agent and male Wister rats weighing 130 to 170 g.

thiopental-induced sleep = test: potentiating effect on thiopental-induced sleep in mice; type: in vivo, male ddY mice; settings: for potentiating effect on thiopental-induced sleep relative to IM: mouse, in vivo
Procedure: (§1) Effect on central nervous system, which is another side effect of IM, was investigated according to the potentiating effect on thiopental-induced sleep in mice as follows: Male ddY mice weighing 20 to 24 g were subjected to fasting for 15 hrs. […] At 30 mins after the administration, thiopental sodium was injected intravenously to each of the mice in an amount of 35 mg/l kg body weight, and then, the sleeping time was observed. When the sleeping time of the mice to which the Test Compound was administered was longer than 2 times that of the control to which only Tween-80 was administered, the given Test Compound was judged to be effective on thiopental-induced sleep potentiating effect.

[4] = as above; type: in vivo, male ddY mice; settings: mouse, in vivo, po
Procedure: as §1

[5] = male Wister rats, foot-pad edema

SMILES	2 hs after the irradiation, Average ± standard error (ultraviolet erythema; 3 mg/kg orally)	2 hs after the irradiation, Rate for inhibition (ultraviolet erythema; 3 mg/kg orally)	3 hs after the irradiation, Average ± standard error (ultraviolet erythema; 3 mg/kg orally)	3 hs after the irradiation, Rate for inhibition (ultraviolet erythema; 3 mg/kg orally)	5 hs after the irradiation, Average ± standard error (ultraviolet erythema; 3 mg/kg orally)	5 hs after the irradiation, Rate for inhibition (ultraviolet erythema; 3 mg/kg orally)	2 hs after the irradiation, Average ± standard error (ultraviolet erythema; 10 mg/kg orally)	2 hs after the irradiation, Rate for inhibition (ultraviolet erythema; 10 mg/kg orally)	3 hs after the irradiation, Average ± standard error (ultraviolet erythema; 10 mg/kg orally)	3 hs after the irradiation, Rate for inhibition (ultraviolet erythema; 10 mg/kg orally)	5 hs after the irradiation, Average ± standard error (ultraviolet erythema; 10 mg/kg orally)	5 hs after the irradiation, Rate for inhibition (ultraviolet erythema; 10 mg/kg orally)	duration of the pharmacological effect (ultraviolet erythema)	TD50 at 6 h (in vivo [1])	metabolised at 1 h [2]	LD50 (in vivo [3])	ED50 (carrageenan edema; [5])	anti-inflammatory activity compared with IM (carrageenan edema)	potentiating effect on thiopental-induced sleep relative to IM (thiopental-induced sleep)	ED50 [4]	other results
C/C=C/C(=O)OCOC(=O)Cc1c(C)n(C(=O)c2ccc(Cl)cc2)c2ccc(OC)cc12 [Compound 1, Crotonoyloxymethyl[1-(p-chlorobenzoyl)-5-methoxy-2-methyl-3-indolyl]acetate]	1.50 ± 0.337	43.8	2.08 ± 0.193	26.5	1.92 ± 0.193	32.2	1.17 ± 0.322	56.2	1.58 ± 0.288	44.2	1.92 ± 0.229	32.2	over 5 hrs	15 mg/kg	88.9%	105 mg/kg	6 mg/kg	equal anti-inflammatory activity to IM	1/4.3	455 mg/kg	–
COc1ccc2c(c1)c(CC(=O)OCOC(=O)C=C(C)C)c(C)n2C(=O)c1ccc(Cl)cc1 [Compound 2, 3,3-Dimethylacryloyloxymethyl[1-(p-chlorobenzoyl)-5-methoxy-2-methyl-3-indolyl]acetate]	1.83 ± 0.297	31.5	1.83 ± 0.207	35.3	2.0 ± 0.174	29.3	0.83 ± 0.241	68.9	0.83 ± 0.241	70.7	1.0 ± 0.369	64.7	over 5 hrs	20 mg/kg	78%	67 mg/kg	6 mg/kg	equal anti-inflammatory activity to IM	–	–	–
C/C=C/C(=O)OC(C)OC(=O)Cc1c(C)n(C(=O)c2ccc(Cl)cc2)c2ccc(OC)cc12 (centres unmarked) [Compound 10, 1-(Crotonoyloxy)ethyl[1-(p-chlorobenzoyl)-5-methoxy-2-methyl-3-indolyl]acetate]	–	–	–	–	–	–	–	–	–	–	–	–	–	20 mg/kg	88.2%	65 mg/kg	7 mg/kg	–	1/2.5	261 mg/kg	–
CC=CC=CC(=O)OC(C)OC(=O)Cc1ccccc1Nc1c(Cl)cccc1Cl (centres unmarked) [Compound 21, 1-(2,4-Hexadienoyloxy)ethyl-2-(2,6-dichloroanilino)phenylacetate]	1.33 ± 0.211	50.2	3.00 ± 0	0	3.00 ± 0	0	1.50 ± 0.224	43.8	2.50 ± 0.224	11.7	2.50 ± 0.224	11.7	–	> 80 mg/kg	78.2%	790 mg/kg	30 mg/kg	–	–	–	inhibition effect for ultraviolet erythema compared with IM and DF (ultraviolet erythema; relative to IM and DF): equal inhibition effect for ultraviolet erythema to that of IM and DF
O=C(O)Cc1ccccc1Nc1c(Cl)cccc1Cl [DF, diclofenac, reference compound]	1.17 ± 0.307	56.2	2.17 ± 0.401	23.3	2.67 ± 0.211	5.7	1.17 ± 0.307	56.2	2.50 ± 0.342	11.7	2.83 ± 0.167	0	–	–	–	–	–	–	–	–	ED50 (carrageenan edema): 15 mg/kg; potentiating effect on thiopental-induced sleep (in words) (thiopental-induced sleep; mice, oral): did not show the potentiating effect
COc1ccc2c(c1)c(CC(=O)O)c(C)n2C(=O)c1ccc(Cl)cc1 [IM, indomethacin, reference compound]	2.17 ± 0.307	18.7	2.5 ± 0.224	11.7	2.83 ± 0.167	0	1.33 ± 0.217	50.2	2.83 ± 0.167	0	3.0 ± 0	0	2 hrs	–	–	31.5 mg/kg	–	–	–	205 mg/kg	TD50 at 6 h (in vivo [1]; in vivo): 8 mg/kg; ED50 (carrageenan edema): 5.5 mg/kg
